“Also recorded” adds a separate entry of the source.
tested on: gMSC (registered trademark) 1; assay: Experimental cryopreservation of gMSC 1 (scaffold-free, three-dimensional mass of mesenchymal stem cells); cell count after thawing; type: cell-based, human; settings: conclusion from gMSC 1 experiments, constituent added to 10% DMSO + basal medium + albumin
Method: Primary cultured human synovium-derived MSCs were obtained through the following steps (1) to (4) or were obtained by shredding a tissue into fragments, immersing them in a culture solution (STK1) in a culture vessel, and allowing outgrowth of cells from the tissue fragments.
(1) Synovial tissue was taken from a human.
(2) The obtained synovial tissue was washed with PBS, then the tissue was added to 10 ml of a 0.4% collagenase solution and blended, and allowed to react at 37° C. for 1 to 4 hours.
(3) The resultant product was subjected to filtering and then centrifugation to recover the synovial tissue.
(4) Primary culture was carried out in a STK (registered trademark) 1 in accordance with the instructions from the manufacturer of the STK 1.
The primary cultured cells obtained in the above manner were subcultured and proliferated in a STK (registered trademark) 2 by repeated subculture, in accordance with the instructions from the manufacturer of the STK 2.
MSCs in a sub-confluent state (5th generation: P5) were washed once with phosphate buffered saline (PBS, calcium-free and magnesium-free, PBS(−), Cell Science & Technology Institute, Inc.), then detached with use of a cell detachment agent TrypLE Select CTS (Thermo Fisher Scientific Inc.), were collected, and suspended in a washing medium (DMEM, Sigma). Then, the cells were transferred to a tube for centrifugation, and subjected to centrifugation at 1500 rpm at room temperature for 5 minutes. The separated single cells were further suspended in a washing medium, and the number of cells was counted using trypan blue staining. The cells were inoculated onto a 6-well plate (SUMITOMO BAKELITE CO., LTD.) containing a STK (registered trademark) 2 at a density of 40×10^4 cells/cm^2, and cultured (high-density culture) in an incubator at 37° C. and 5% CO2 for 7 days. Culture media were replaced three days after the inoculation and five days after the inoculation. […]

Compound | cryopreservative effect on scaffold-free, three-dimensional mass of mesenchymal stem cells
CCCCC/C=C\C/C=C\CCCCCCCC(=O)O [linoleic acid, Linoleic Acid] | effective; also recorded: greater than the cryopreservative effect achieved by methyl-β-cyclodextrin
Phosphatidic acid sodium salt [PA] | effective
Tween 80 [reference compound] | not effective

— patent US20200205399A1, “COMPOSITION FOR CRYOPRESERVATION, METHOD FOR PRODUCING CRYOPRESERVED MATERIAL, CELL PREPARATION, METHOD FOR PRODUCING CELL PREPARATION, AND KIT FOR CRYOPRESERVATION” (TWO CELLS Co., Ltd., priority 2017, published 2020)
